In ChEMBL document CHEMBL3603741, “Structure activity relationship of pyridoxazinone substituted RHS analogs of oxabicyclooctane-linked 1,5-naphthyridinyl novel bacterial topoisomerase inhibitors as broad-spectrum antibacterial agents (Part-6)” (Bioorg Med Chem Lett, 2015):
In brackets after ≈: the same amount, converted by molar mass.

Key:
[1] = target: T1, Voltage-gated inwardly rectifying potassium channel KCNH2 (Homo sapiens, UniProt Q12809); test: Inhibition of MK499 binding to human ERG
[2] = tested on: Streptococcus pneumoniae; test: Antibacterial activity against Streptococcus pneumoniae IID553; format: functional
[3] = tested on: Pseudomonas aeruginosa; test: Antibacterial activity against Pseudomonas aeruginosa PAO1; format: functional
[4] = tested on: Acinetobacter baumannii; test: Antibacterial activity against Acinetobacter baumannii IID876; format: functional
[5] = tested on: Staphylococcus aureus; test: Antibacterial activity against Staphylococcus aureus Smith; format: functional
[6] = tested on: Enterococcus faecium; test: Antibacterial activity against VanA-resistant Enterococcus faecium; format: functional
[7] = tested on: Escherichia coli; test: Antibacterial activity against Escherichia coli ATCC 25922; format: functional
[8] = tested on: Staphylococcus aureus; test: Ratio of MIC for quinolone-resistant Staphylococcus aureus MS5935 to MIC for […]; format: functional
[9] = tested on: Staphylococcus aureus; test: Antibacterial activity against Staphylococcus aureus Smith infected in po dosed ICR mouse assessed as increase in survival rate administered at 1 hr post infection measured on day 7; format: functional
[10] = tested on: Staphylococcus aureus; test: Antibacterial activity against Staphylococcus aureus Smith infected in iv dosed ICR mouse assessed as increase in survival rate administered at 1 hr post infection measured on day 7; format: functional
[11] = target: T1, Voltage-gated inwardly rectifying potassium channel KCNH2; test: Inhibition of human ERG expressed in CHO cells measured for 5 mins by automated patch clamp assay
[12] = Streptococcus pneumoniae, IID553, read-out: MIC
[13] = Pseudomonas aeruginosa, PAO1, read-out: MIC
[14] = Acinetobacter baumannii, IID876, read-out: MIC
[15] = Staphylococcus aureus, Smith, read-out: MIC
[16] = Enterococcus faecium, read-out: MIC
[17] = Escherichia coli, ATCC 25922, read-out: MIC

T1 sequence (Q12809 whole entry): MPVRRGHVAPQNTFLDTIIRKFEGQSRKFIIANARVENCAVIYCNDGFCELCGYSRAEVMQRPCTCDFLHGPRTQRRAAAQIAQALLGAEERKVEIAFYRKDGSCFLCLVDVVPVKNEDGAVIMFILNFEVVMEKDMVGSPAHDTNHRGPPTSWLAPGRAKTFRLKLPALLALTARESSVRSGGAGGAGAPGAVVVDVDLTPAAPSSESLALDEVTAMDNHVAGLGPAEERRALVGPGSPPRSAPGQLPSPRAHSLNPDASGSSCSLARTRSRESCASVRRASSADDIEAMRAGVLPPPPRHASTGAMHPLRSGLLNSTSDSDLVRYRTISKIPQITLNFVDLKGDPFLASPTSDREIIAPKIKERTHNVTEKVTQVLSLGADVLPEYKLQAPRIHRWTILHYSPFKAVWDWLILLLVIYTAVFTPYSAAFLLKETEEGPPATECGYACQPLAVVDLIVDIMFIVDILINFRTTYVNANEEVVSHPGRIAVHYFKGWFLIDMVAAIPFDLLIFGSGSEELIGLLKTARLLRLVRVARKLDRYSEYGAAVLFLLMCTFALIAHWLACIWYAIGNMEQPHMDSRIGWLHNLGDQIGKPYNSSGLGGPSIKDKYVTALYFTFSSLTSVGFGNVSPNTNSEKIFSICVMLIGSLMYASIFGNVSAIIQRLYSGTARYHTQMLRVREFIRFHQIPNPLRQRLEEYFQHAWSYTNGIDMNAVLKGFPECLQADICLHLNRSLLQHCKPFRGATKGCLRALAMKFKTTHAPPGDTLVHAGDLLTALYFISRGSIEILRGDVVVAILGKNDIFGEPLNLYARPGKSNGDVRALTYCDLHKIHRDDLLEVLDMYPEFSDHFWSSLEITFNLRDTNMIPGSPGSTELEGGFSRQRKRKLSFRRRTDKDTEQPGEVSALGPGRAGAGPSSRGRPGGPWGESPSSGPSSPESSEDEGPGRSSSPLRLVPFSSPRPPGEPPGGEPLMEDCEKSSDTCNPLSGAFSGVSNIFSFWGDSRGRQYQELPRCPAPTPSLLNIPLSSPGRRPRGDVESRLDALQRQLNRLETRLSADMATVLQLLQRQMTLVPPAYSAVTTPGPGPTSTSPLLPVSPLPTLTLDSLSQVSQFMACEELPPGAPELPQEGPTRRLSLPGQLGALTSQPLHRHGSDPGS

SMILES	IC50 [1] [µM]	MIC [2, 12] [µg/mL]	MIC [3, 13] [µg/mL]	MIC [4, 14] [µg/mL]	MIC [5, 15] [µg/mL]	MIC [6, 16] [µg/mL]	MIC [7, 17] [µg/mL]	Ratio [8]	MIC [3] [µg/mL]	MIC [4] [µg/mL]	MIC [5] [µg/mL]	MIC [6] [µg/mL]	MIC [7] [µg/mL]	ED50 [9] [mg/kg]	ED50 [10] [mg/kg]	MIC [2] [µg/mL]	IC50 [11] [µM]
COc1ccc2ncc(F)c(CCC34CCC(N(C)Cc5ccc6c(n5)NC(=O)CO6)(CC3)CO4)c2n1	1.2	2 (≈ 3.94 µM)	32 (≈ 63 µM)	8 (≈ 15.8 µM)	0.13 (≈ 0.256 µM)	8 (≈ 15.8 µM)	16 (≈ 31.5 µM)	<4	–	–	–	–	–	–	–	–	–
COc1ccc2ncc(F)c(C[C@H](O)C3CCC(NCc4ccc5c(n4)NC(=O)CO5)CO3)c2n1 (stereo not given in full)	–	2 (≈ 4.14 µM)	32 (≈ 66.2 µM)	2 (≈ 4.14 µM)	0.03 (≈ 0.062 µM)	2 (≈ 4.14 µM)	16 (≈ 33.1 µM)	<4	–	–	–	–	–	–	–	–	–
CCOC(=O)C1(C)Oc2ccc(CNC34CCC(CCc5c(F)cnc6ccc(OC)nc56)(CC3)OC4)nc2NC1=O (single isomer, unassigned; (-))	–	8 (≈ 13.8 µM)	–	–	–	–	–	–	8 (≈ 13.8 µM)	8 (≈ 13.8 µM)	8 (≈ 13.8 µM)	8 (≈ 13.8 µM)	8 (≈ 13.8 µM)	–	–	–	–
CCc1c(CNC23CCC(CCc4c(F)cnc5ccc(OC)nc45)(CC2)OC3)nc2c(c1C)OCC(=O)N2	–	32 (≈ 59.7 µM)	32 (≈ 59.7 µM)	32 (≈ 59.7 µM)	2 (≈ 3.73 µM)	32 (≈ 59.7 µM)	32 (≈ 59.7 µM)	–	–	–	–	–	–	–	–	–	–
COc1ccc2ncc(F)c(CCC34CCC(NCc5nc6c(cc5F)OCC(=O)N6)(CC3)CO4)c2n1	–	0.13 (≈ 0.254 µM)	8 (≈ 15.6 µM)	0.5 (≈ 0.977 µM)	0.02 (≈ 0.0391 µM)	1 (≈ 1.95 µM)	2 (≈ 3.91 µM)	–	–	–	–	–	–	3.9	2.5	–	–
COc1ccc2ncc(F)c(CCC34CCC(NC(=O)c5ccc6c(n5)NC(=O)CO6)(CC3)CO4)c2n1	–	0.5 (≈ 0.985 µM)	8 (≈ 15.8 µM)	8 (≈ 15.8 µM)	0.02 (≈ 0.0394 µM)	1 (≈ 1.97 µM)	8 (≈ 15.8 µM)	–	–	–	–	–	–	–	–	–	–
COC(=O)N(Cc1ccc2c(n1)NC(=O)CO2)C12CCC(CCc3c(F)cnc4ccc(OC)nc34)(CC1)OC2	–	64 (≈ 116 µM)	64 (≈ 116 µM)	64 (≈ 116 µM)	16 (≈ 29 µM)	64 (≈ 116 µM)	64 (≈ 116 µM)	–	–	–	–	–	–	–	–	–	–
CCOC(=O)C1(C)Oc2ccc(CNC34CCC(CCc5c(F)cnc6ccc(OC)nc56)(CC3)OC4)nc2NC1=O (single isomer, unassigned; (+))	–	–	16 (≈ 27.6 µM)	16 (≈ 27.6 µM)	16 (≈ 27.6 µM)	16 (≈ 27.6 µM)	16 (≈ 27.6 µM)	–	–	–	–	–	–	–	–	16 (≈ 27.6 µM)	–
COc1ccc2ncc(F)c(CCC34CCC(NCc5nc6c(cc5OC)OCC(=O)N6)(CC3)CO4)c2n1	–	8 (≈ 15.3 µM)	8 (≈ 15.3 µM)	8 (≈ 15.3 µM)	4 (≈ 7.64 µM)	8 (≈ 15.3 µM)	8 (≈ 15.3 µM)	<4	–	–	–	–	–	–	–	–	–
COc1ccc2ncc(F)c(CCC34CCC(N(C)C(=O)c5ccc6c(n5)NC(=O)CO6)(CC3)CO4)c2n1	> 60	4 (≈ 7.67 µM)	4 (≈ 7.67 µM)	4 (≈ 7.67 µM)	0.03 (≈ 0.0575 µM)	4 (≈ 7.67 µM)	4 (≈ 7.67 µM)	<4	–	–	–	–	–	–	–	–	> 30
C=Cc1c(CNC23CCC(CCc4c(F)cnc5ccc(OC)nc45)(CC2)OC3)nc2c(c1C)OCC(=O)N2	–	8 (≈ 15 µM)	32 (≈ 60 µM)	32 (≈ 60 µM)	0.25 (≈ 0.469 µM)	32 (≈ 60 µM)	32 (≈ 60 µM)	–	–	–	–	–	–	–	–	–	–
COc1ccc2ncc(F)c(CCC34CCC(NCc5ccc6c(n5)NC(=O)CO6)(CC3)CO4)c2n1	–	0.13 (≈ 0.263 µM)	4 (≈ 8.1 µM)	0.5 (≈ 1.01 µM)	0.02 (≈ 0.0405 µM)	0.5 (≈ 1.01 µM)	1 (≈ 2.03 µM)	–	–	–	–	–	–	–	–	–	–
COc1ccc2ncc(F)c(CCC34CCC(NCc5ccc6c(n5)NC(=O)C(C)O6)(CC3)CO4)c2n1 (single isomer, unassigned; (+))	–	0.25 (≈ 0.493 µM)	2 (≈ 3.94 µM)	2 (≈ 3.94 µM)	–	2 (≈ 3.94 µM)	2 (≈ 3.94 µM)	–	–	–	0.25 (≈ 0.493 µM)	–	–	–	–	–	–
COc1ccc2ncc(F)c(CCC34CCC(NCc5nc6c(cc5Cl)OCC(=O)N6)(CC3)CO4)c2n1	–	0.25 (≈ 0.473 µM)	2 (≈ 3.79 µM)	1 (≈ 1.89 µM)	0.02 (≈ 0.0379 µM)	1 (≈ 1.89 µM)	2 (≈ 3.79 µM)	–	–	–	–	–	–	–	–	–	–
COc1ccc2ncc(F)c(CCC34CCC(NCc5cc(C)c6c(n5)NC(=O)CO6)(CC3)CO4)c2n1	–	4 (≈ 7.88 µM)	32 (≈ 63 µM)	4 (≈ 7.88 µM)	0.5 (≈ 0.985 µM)	8 (≈ 15.8 µM)	8 (≈ 15.8 µM)	–	–	–	–	–	–	–	–	–	–
COc1ccc2ncc(F)c(CCC34CCC(NCc5ccc6c(n5)N(C)C(=O)CO6)(CC3)CO4)c2n1	–	2 (≈ 3.94 µM)	16 (≈ 31.5 µM)	16 (≈ 31.5 µM)	2 (≈ 3.94 µM)	16 (≈ 31.5 µM)	16 (≈ 31.5 µM)	–	–	–	–	–	–	–	–	–	–
COc1ccc2ncc(F)c(C[C@H](O)C3CCC(NCc4nc5c(cc4F)OCC(=O)N5)CO3)c2n1 (stereo not given in full)	–	0.25 (≈ 0.499 µM)	16 (≈ 31.9 µM)	1 (≈ 1.99 µM)	0.03 (≈ 0.0598 µM)	2 (≈ 3.99 µM)	4 (≈ 7.98 µM)	–	–	–	–	–	–	6.7	3.2	–	–
COc1ccc2ncc(F)c(C[C@H](O)C3CCC(NCc4nc5c(cc4OC)OCC(=O)N5)CO3)c2n1 (stereo not given in full)	–	16 (≈ 31.2 µM)	16 (≈ 31.2 µM)	16 (≈ 31.2 µM)	16 (≈ 31.2 µM)	16 (≈ 31.2 µM)	16 (≈ 31.2 µM)	<4	–	–	–	–	–	–	–	–	–
COc1ccc2ncc(F)c(CCC34CCC(NCc5ccc6c(n5)NC(=O)C(C)O6)(CC3)CO4)c2n1 (single isomer, unassigned; (-))	–	–	–	–	–	–	–	–	2 (≈ 3.94 µM)	1 (≈ 1.97 µM)	0.06 (≈ 0.118 µM)	2 (≈ 3.94 µM)	2 (≈ 3.94 µM)	28	14	0.25 (≈ 0.493 µM)	–
COc1ccc2ncc(F)c(CCC34CCC(NCc5nc6c(cc5C)OCC(=O)N6)(CC3)CO4)c2n1	–	1 (≈ 1.97 µM)	8 (≈ 15.8 µM)	0.5 (≈ 0.985 µM)	0.06 (≈ 0.118 µM)	1 (≈ 1.97 µM)	2 (≈ 3.94 µM)	–	–	–	–	–	–	–	–	–	–
COc1ccc2ncc(F)c(CCC34CCC(NCc5nc6c(c(C)c5F)OCC(=O)N6)(CC3)CO4)c2n1	–	4 (≈ 7.61 µM)	32 (≈ 60.9 µM)	32 (≈ 60.9 µM)	0.5 (≈ 0.951 µM)	32 (≈ 60.9 µM)	32 (≈ 60.9 µM)	–	–	–	–	–	–	–	–	–	–
COc1ccc2ncc(F)c(CCC34CCC(NCc5nc6c(c(C)c5C(C)C)OCC(=O)N6)(CC3)CO4)c2n1	–	32 (≈ 58.2 µM)	32 (≈ 58.2 µM)	32 (≈ 58.2 µM)	32 (≈ 58.2 µM)	32 (≈ 58.2 µM)	32 (≈ 58.2 µM)	–	–	–	–	–	–	–	–	–	–
COc1ccc2ncc(F)c(CCC34CCC(NCc5ccc6c(n5)NC(=O)C(C)(C)O6)(CC3)CO4)c2n1	3	1 (≈ 1.92 µM)	2 (≈ 3.83 µM)	2 (≈ 3.83 µM)	0.25 (≈ 0.479 µM)	2 (≈ 3.83 µM)	2 (≈ 3.83 µM)	<4	–	–	–	–	–	–	–	–	–
COc1ccc2ncc(F)c(CCC34CCC(NCc5nc6c(c(C)c5C)OCC(=O)N6)(CC3)CO4)c2n1	–	8 (≈ 15.3 µM)	16 (≈ 30.7 µM)	4 (≈ 7.67 µM)	1.06 (≈ 2.03 µM)	2 (≈ 3.83 µM)	2 (≈ 3.83 µM)	–	–	–	–	–	–	–	–	–	–
